Results published in patent US12595230B2, “Substituted 6,7-dihydro-5H-benzo[7]annulene compounds and their derivatives, processes for their preparation and therapeutic uses thereof” (Sanofi, priority 2020, dated 2026).

Target: T1, ERα (Homo sapiens, UniProt P03372)
T1 construct: host or cells: MCF7
T1 sequence (P03372 1-595): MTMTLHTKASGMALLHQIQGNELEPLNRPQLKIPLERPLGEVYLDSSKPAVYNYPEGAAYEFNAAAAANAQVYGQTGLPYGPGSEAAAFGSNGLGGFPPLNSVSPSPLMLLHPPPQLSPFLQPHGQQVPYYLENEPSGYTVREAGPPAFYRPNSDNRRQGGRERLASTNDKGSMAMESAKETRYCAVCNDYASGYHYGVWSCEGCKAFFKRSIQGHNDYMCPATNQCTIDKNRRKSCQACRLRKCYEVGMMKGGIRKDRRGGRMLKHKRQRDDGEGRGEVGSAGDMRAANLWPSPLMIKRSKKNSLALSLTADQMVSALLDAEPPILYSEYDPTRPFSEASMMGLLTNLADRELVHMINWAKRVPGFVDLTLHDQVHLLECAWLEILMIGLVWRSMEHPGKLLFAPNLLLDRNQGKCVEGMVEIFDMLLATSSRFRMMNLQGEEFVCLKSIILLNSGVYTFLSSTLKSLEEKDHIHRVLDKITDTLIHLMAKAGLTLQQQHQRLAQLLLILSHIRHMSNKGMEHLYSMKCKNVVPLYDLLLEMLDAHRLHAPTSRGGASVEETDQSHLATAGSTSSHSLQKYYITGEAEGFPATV
Experiment: Estrogen receptor degradation activity: breast cancer cell ERα in cell western assay (MCF7 cells)
Type: cell-based
Settings: for % Degradation At 0.3 μM: 4 hours, relative to fulvestrant 0.1 μM positive control; for DC50: read-out: Degradation IC50
How it was run: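 Compounds were applied to MCF7 cells in stripped-serum, phenol red-free medium for 4 h at final 0.3–0.0000018 μM, with fulvestrant (0.1 μM) as control. Value: IC50 (nM) for 50% ERα degradation.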

[1] = 4 hours post compound addition, concentration which degrades 50% of the estrogen receptor

Row | % Degradation At 0.3 μM | DC50 [1] | IC50 [1] | SMILES
1 | 100% | 225000 pM |  | COc1c(C(=O)O)ccc2c1CCCC(c1ccc(F)cc1F)=C2c1ccc(CC2CN(CCCF)C2)cc1 [Example 270, 8-(2,4-difluorophenyl)-9-(4-((1-(3-fluoropropyl)azetidin-3-yl)methyl)phenyl)-4-methoxy-6,7-dihydro-5H-benzo[7]annulene-3-carboxylic acid]
2 | 83% | 16200 pM |  | COc1c(C(=O)O)ccc2c1CCCC(c1ccc(Cl)cc1Cl)=C2c1ccc(CC2CN(CCCF)C2)cc1 [Example 271, 8-(2,4-dichlorophenyl)-9-(4-((1-(3-fluoropropyl)azetidin-3-yl)methyl)phenyl)-4-methoxy-6,7-dihydro-5H-benzo[7]annulene-3-carboxylic acid]
3 | 90% | 600 pM |  | O=C(O)c1ccc2c(c1)CCCC(c1ccc(F)cc1CC(F)(F)F)=C2c1ccc(CC2CN(CCCF)C2)cc1 [Example 272, 8-(4-fluoro-2-(2,2,2-trifluoroethyl)phenyl)-9-(4-((1-(3-fluoropropyl)azetidin-3-yl)methyl)phenyl)-6,7-dihydro-5H-benzo[7]annulene-3-carboxylic acid]
4 | 89% | 600 pM |  | O=C([O-])c1ccc2c(c1)CCCC(c1cc(C(F)F)ccc1F)=C2c1ccc(CC2CN(CCCF)C2)cc1.[Na+] [Example 273, sodium 8-(5-(difluoromethyl)-2-fluorophenyl)-9-(4-((1-(3-fluoropropyl)azetidin-3-yl)methyl)phenyl)-6,7-dihydro-5H-benzo[7]annulene-3-carboxylate]
5 | 84% | 6500 pM |  | COc1cc(C2=C(c3ccc(CC4CN(CCCF)C4)cc3)c3ccc(C(=O)[O-])cc3CCC2)cc(C(F)(F)F)n1.[Na+] [Example 274, sodium 9-(4-((1-(3-fluoropropyl)azetidin-3-yl)methyl)phenyl)-8-(2-methoxy-6-(trifluoromethyl)pyridin-4-yl)-6,7-dihydro-5H-benzo[7]annulene-3-carboxylate]
6 | 89% | 400 pM |  | Cc1c(C2=C(c3ccc(CC4CN(CCC(F)F)C4)cc3)c3ccc(C(=O)O)cc3CCC2)ccc(F)c1F [Example 275, 8-(3,4-difluoro-2-methylphenyl)-9-(4-((1-(3,3-difluoropropyl)azetidin-3-yl)methyl)phenyl)-6,7-dihydro-5H-benzo[7]annulene-3-carboxylic acid]
7 | 85% | 400 pM |  | O=C(O)c1ccc2c(c1)CCCC(c1ccc(F)cc1C(F)(F)F)=C2c1ccc(CC2CN(CCC(F)F)C2)cc1 [Example 276, 9-(4-((1-(3,3-difluoropropyl)azetidin-3-yl)methyl)phenyl)-8-(4-fluoro-2-(trifluoromethyl)phenyl)-6,7-dihydro-5H-benzo[7]annulene-3-carboxylic acid]
8 | 82% | 300 pM |  | Cc1cccc(C2=C(c3ccc(CC4CN(CCC(F)F)C4)cc3)c3ccc(C(=O)O)cc3CCC2)c1Cl [Example 277, 8-(2-chloro-3-methylphenyl)-9-(4-((1-(3,3-difluoropropyl)azetidin-3-yl)methyl)phenyl)-6,7-dihydro-5H-benzo[7]annulene-3-carboxylic acid]
9 | 84% |  | 200 pM | O=C(O)c1ccc2c(c1)CCCC(c1cccc(F)c1C(F)(F)F)=C2c1ccc(CC2CN(CCC(F)F)C2)cc1 [Example 278, 9-(4-((1-(3,3-difluoropropyl)azetidin-3-yl)methyl)phenyl)-8-(3-fluoro-2-(trifluoromethyl)phenyl)-6,7-dihydro-5H-benzo[7]annulene-3-carboxylic acid]
10 | 84% | 200 pM |  | Cc1cc(F)ccc1C1=C(c2ccc(CC3CN(CCC(F)F)C3)cc2)c2ccc(C(=O)O)cc2CCC1 [Example 279, 9-(4-((1-(3,3-difluoropropyl)azetidin-3-yl)methyl)phenyl)-8-(4-fluoro-2-methylphenyl)-6,7-dihydro-5H-benzo[7]annulene-3-carboxylic acid]
11 | 86% | 300 pM |  | O=C(O)c1ccc2c(c1)CCCC(c1cccc(Cl)c1C(F)(F)F)=C2c1ccc(CC2CN(CCC(F)F)C2)cc1 [Example 280, 8-(3-chloro-2-(trifluoromethyl)phenyl)-9-(4-((1-(3,3-difluoropropyl)azetidin-3-yl)methyl)phenyl)-6,7-dihydro-5H-benzo[7]annulene-3-carboxylic acid]
12 | 84% | 400 pM |  | O=C(O)c1ccc2c(c1)CCCC(c1ccc(F)cc1F)=C2c1ccc(CC2CN(CCC(F)F)C2)cc1 [Example 281, 8-(2,4-difluorophenyl)-9-(4-((1-(3,3-difluoropropyl)azetidin-3-yl)methyl)phenyl)-6,7-dihydro-5H-benzo[7]annulene-3-carboxylic acid]
13 | 86% | 400 pM |  | Cc1cc(Cl)ccc1C1=C(c2ccc(CC3CN(CCC(F)F)C3)cc2)c2ccc(C(=O)O)cc2CCC1 [Example 282, 8-(4-chloro-2-methylphenyl)-9-(4-((1-(3,3-difluoropropyl)azetidin-3-yl)methyl)phenyl)-6,7-dihydro-5H-benzo[7]annulene-3-carboxylic acid]
14 | 90% | 93300 pM |  | COc1c(C(=O)O)ccc2c1CCCC(c1ccc(F)cc1C(F)(F)F)=C2c1ccc(CC2CN(CCCF)C2)cc1.Cl [Example 283, 8-(4-fluoro-2-(trifluoromethyl)phenyl)-9-(4-((1-(3-fluoropropyl)azetidin-3-yl)methyl)phenyl)-4-methoxy-6,7-dihydro-5H-benzo[7]annulene-3-carboxylic acid hydrochloride]
15 | 96% | 300 pM |  | Cl.O=C(O)c1ccc2c(c1)CCCC(c1c(F)cc(F)cc1C(F)F)=C2c1ccc(CC2CN(CCCF)C2)cc1 [Example 284, 8-(2-(difluoromethyl)-4,6-difluorophenyl)-9-(4-((1-(3-fluoropropyl)azetidin-3-yl)methyl)phenyl)-6,7-dihydro-5H-benzo[7]annulene-3-carboxylic acid hydrochloride]
16 | 89% | 400 pM |  | Cc1c(F)ccc(C2=C(c3ccc(CC4CN(CCC(F)F)C4)cc3)c3ccc(C(=O)O)cc3CCC2)c1C [Example 285, 9-(4-((1-(3,3-difluoropropyl)azetidin-3-yl)methyl)phenyl)-8-(4-fluoro-2,3-dimethylphenyl)-6,7-dihydro-5H-benzo[7]annulene-3-carboxylic acid]
17 | 88% | 300 pM |  | O=C(O)c1ccc2c(c1)CCCC(c1cccc(C(F)(F)F)c1Cl)=C2c1ccc(CC2CN(CCC(F)F)C2)cc1 [Example 286, 8-(2-chloro-3-(trifluoromethyl)phenyl)-9-(4-((1-(3,3-difluoropropyl)azetidin-3-yl)methyl)phenyl)-6,7-dihydro-5H-benzo[7]annulene-3-carboxylic acid]
18 | 86% | 400 pM |  | Cc1c(C2=C(c3ccc(CC4CN(CCC(F)F)C4)cc3)c3ccc(C(=O)O)cc3CCC2)cccc1C(F)(F)F [Example 287, 9-(4-((1-(3,3-difluoropropyl)azetidin-3-yl)methyl)phenyl)-8-(2-methyl-3-(trifluoromethyl)phenyl)-6,7-dihydro-5H-benzo[7]annulene-3-carboxylic acid]
19 | 81% | 500 pM |  | O=C(O)c1ccc2c(c1)CCCC(c1cccc(C(F)(F)F)c1F)=C2c1ccc(CC2CN(CCC(F)F)C2)cc1 [Example 288, 9-(4-((1-(3,3-difluoropropyl)azetidin-3-yl)methyl)phenyl)-8-(2-fluoro-3-(trifluoromethyl)phenyl)-6,7-dihydro-5H-benzo[7]annulene-3-carboxylic acid]
20 | 86% | 300 pM |  | O=C(O)c1ccc2c(c1)CCCC(c1ccc(Cl)cc1C(F)(F)F)=C2c1ccc(CC2CN(CCC(F)F)C2)cc1 [Example 289, 8-(4-chloro-2-(trifluoromethyl)phenyl)-9-(4-((1-(3,3-difluoropropyl)azetidin-3-yl)methyl)phenyl)-6,7-dihydro-5H-benzo[7]annulene-3-carboxylic acid]
21 | 84% | 800 pM |  | O=C(O)c1ccc2c(c1)CCCC(c1ccc(F)c(CC(F)(F)F)c1)=C2c1ccc(CC2CN(CCCF)C2)cc1 [Example 290, 8-(4-fluoro-3-(2,2,2-trifluoroethyl)phenyl)-9-(4-((1-(3-fluoropropyl)azetidin-3-yl)methyl)phenyl)-6,7-dihydro-5H-benzo[7]annulene-3-carboxylic acid]
22 | 84% | 800 pM |  | O=C(O)c1ccc2c(c1)CCCC(c1ncc(Cl)cc1C(F)(F)F)=C2c1ccc(CC2CN(CCC(F)F)C2)cc1 [Example 291, 8-(5-chloro-3-(trifluoromethyl)pyridin-2-yl)-9-(4-((1-(3,3-difluoropropyl)azetidin-3-yl)methyl)phenyl)-6,7-dihydro-5H-benzo[7]annulene-3-carboxylic acid]
